Consider twelve molecules from publication PMC6641592, “Deciphering Design Principles of Förster Resonance Energy Transfer-Based Protease Substrates: Thermolysin-Like Protease from Geobacillus stearothermophilus as a Test Case” (ACS Omega, 2018).

Read-outs that look alike come from different tables or passages of the source. AF647 = Alexa Fluor 647 (maleimide); CF = 5,6-carboxyfluorescein; Cy5 = Cy5 (maleimide)

One data set addresses TLP-ste (C288L/N181C) (Geobacillus stearothermophilus, UniProt P06874, C520L/N413C). The following applies: for Km / vmax: Michaelis-Menten fit, mean ± SD, triplicate; for vmax: MOPS pH 7.4, 10% DMSO; for kcat/KM: calculated from kcat and KM; for increase of kcat with peptide length: 8aa substrate relative to 4aa substrate with the same acceptor.
The conditions of data set [1]: after complete hydrolysis with 1 nM TLP-ste, >16 h room temperature; MOPS buffer, 10% DMSO; λex 450/λem 520 nm.
Another data set addresses TLP-ste (Geobacillus stearothermophilus, UniProt P06874, C520L/N413C). The following applies: product 0–20 μM; substrates 8aa-Cy5 and 8aa-AF647 0–2 μM; triplicate.
The subject of data set [2] is CC(C)C[C@H](NC(=O)CNC(=O)C=Cc1ccco1)C(N)=O. Nature of the data set: purified protein, by the assay type. The following applies: other: enzyme preparation TLP-ste (C288L/N181C).
In data set [3] the target is thermolysin-like protease (TLP-ste) from Geobacillus stearothermophilus, C288L/N181C (Geobacillus stearothermophilus).
[4] abbreviates: corrected for IFE and FRET efficiency, 1 nM TLP-ste, 20 mM MOPS pH 7.4, 5 mM CaCl2, 10% DMSO, 30 °C, donor λex 490/λem 520 nm.
The mark [5] stands for this setting: corrected for IFE and FRET efficiency, 1 nM TLP-ste, 30 °C.
Where [6] appears, read: corrected for IFE and FRET efficiency, vmax divided by enzyme concentration (1 nM).
Where [7] appears, read: correction: FRET efficiency only.
The mark [8] stands for this setting: correction: FRET efficiency only, vmax divided by enzyme concentration.
Setting [9] is: correction: IFE only, vmax divided by enzyme concentration.
Where [10] appears, read: correction: none, vmax divided by enzyme concentration.

Regarding CF-PAGLAC(AF674)-NH2 [4aa-AF647], the results for the Km on TLP-ste (C288L/N181C) (setting [4]), on TLP-ste (C288L/N181C) (setting [7]) and on TLP-ste (C288L/N181C) (correction: none) were 53.3 ± 33.9 µM, 14.3 ± 4 µM and 14.3 ± 4 µM, respectively. Also, the vmax on TLP-ste (C288L/N181C) (setting [5]) is 7.0 ± 3.8 ×10^–4 μM s^–1. Besides, the kcat on TLP-ste (C288L/N181C) (setting [6]) turned out to be 0.70 s^–1; at TLP-ste (C288L/N181C) (setting [8]), 0.20 s⁻¹; on TLP-ste (C288L/N181C) (setting [9]), 0.69 s⁻¹; at TLP-ste (C288L/N181C) (setting [10]), 0.19 s⁻¹. The kcat/KM at TLP-ste (C288L/N181C) (setting [7]) was 14000 M⁻¹ s⁻¹; at TLP-ste (C288L/N181C) (correction: IFE only), 12900 M⁻¹ s⁻¹; at TLP-ste (C288L/N181C) (correction: none) it was 13200 M⁻¹ s⁻¹.

In the case of CF-PAGLAC(Cy5)-NH2 [4aa-Cy5], the Km on TLP-ste (C288L/N181C) (setting [4]) was 2.4 ± 1.9 µM; at TLP-ste (C288L/N181C) (setting [7]) it was 1.6 ± 1.3 µM; at TLP-ste (C288L/N181C) (correction: none) it was 1.6 ± 1.3 µM. Moreover, the vmax at TLP-ste (C288L/N181C) (setting [5]) is reported as 3.7 ± 1.6 ×10^–4 μM s^–1. In addition, the kcat on TLP-ste (C288L/N181C) (setting [6]) came to 0.37 s^–1; at TLP-ste (C288L/N181C) (setting [8]), 0.28 s⁻¹; on TLP-ste (C288L/N181C) (setting [9]), 0.35 s⁻¹; at TLP-ste (C288L/N181C) (setting [10]) it was 0.26 s⁻¹. Besides, the values for the kcat/KM on TLP-ste (C288L/N181C) (setting [7]), on TLP-ste (C288L/N181C) (correction: IFE only) and at TLP-ste (C288L/N181C) (correction: none) were 175000 M⁻¹ s⁻¹, 145800 M⁻¹ s⁻¹ and 162500 M⁻¹ s⁻¹, respectively. The “concentration of hydrolyzed peptide above which fluorescence plateaus or decreases (cleaved products form aggregates)” value in data set [1] is 2500 nM.

Regarding CF-PSVAGLAGGC(AF647)-NH2 [8aa-AF647], on TLP-ste (C288L/N181C), the “increase of kcat with peptide length” value came to 8 fold. For the same molecule, the results for the Km on TLP-ste (C288L/N181C) (setting [4]), on TLP-ste (C288L/N181C) (setting [7]) and on TLP-ste (C288L/N181C) (correction: none) were 77.6 ± 38.5 µM, 17 ± 4.6 µM and 17 ± 4.6 µM, respectively. Besides, the vmax on TLP-ste (C288L/N181C) (setting [5]) was 57.0 ± 27.0 ×10^–4 μM s^–1. For the same molecule, the kcat at TLP-ste (C288L/N181C) (setting [6]) is 5.70 s^–1; at TLP-ste (C288L/N181C) (setting [8]), 1.29 s⁻¹; at TLP-ste (C288L/N181C) (setting [9]), 5.47 s⁻¹; on TLP-ste (C288L/N181C) (setting [10]), 1.24 s⁻¹. Moreover, the kcat/KM on TLP-ste (C288L/N181C) (setting [7]) is 75900 M⁻¹ s⁻¹; on TLP-ste (C288L/N181C) (correction: IFE only) it was 70500 M⁻¹ s⁻¹; on TLP-ste (C288L/N181C) (correction: none), 72900 M⁻¹ s⁻¹.

With CF-PSVAGLAGGC(Cy5)-NH2 [8aa-Cy5], at TLP-ste (C288L/N181C), the “increase of kcat with peptide length” value amounted to 21 fold. Further, the Km amounted to 17.6 ± 11.1 µM at TLP-ste (C288L/N181C) (setting [4]), 8.2 ± 3.9 µM on TLP-ste (C288L/N181C) (setting [7]) and 8.2 ± 3.9 µM on TLP-ste (C288L/N181C) (correction: none). Moreover, at TLP-ste (C288L/N181C) (setting [5]), the vmax is recorded as 78.2 ± 48.2 ×10^–4 μM s^–1. Moreover, the kcat was 7.82 s^–1 at TLP-ste (C288L/N181C) (setting [6]), 3.73 s⁻¹ at TLP-ste (C288L/N181C) (setting [8]), 7.50 s⁻¹ at TLP-ste (C288L/N181C) (setting [9]) and 3.58 s⁻¹ at TLP-ste (C288L/N181C) (setting [10]). Moreover, the kcat/KM at TLP-ste (C288L/N181C) (setting [7]) was 454900 M⁻¹ s⁻¹; on TLP-ste (C288L/N181C) (correction: IFE only) it was 426100 M⁻¹ s⁻¹; at TLP-ste (C288L/N181C) (correction: none), 436600 M⁻¹ s⁻¹.

As to CF-PVAGLAGC(Cy5)-NH2 [6aa-Cy5], the Km was found to be 11.6 ± 13 µM on TLP-ste (C288L/N181C) (setting [4]), 6.9 ± 6.6 µM at TLP-ste (C288L/N181C) (setting [7]) and 6.9 ± 6.6 µM at TLP-ste (C288L/N181C) (correction: none). Also, on TLP-ste (C288L/N181C) (setting [5]), the vmax was 29.6 ± 26.6 ×10^–4 μM s^–1. Moreover, the kcat is 2.96 s^–1 at TLP-ste (C288L/N181C) (setting [6]), 1.87 s⁻¹ on TLP-ste (C288L/N181C) (setting [8]), 2.87 s⁻¹ on TLP-ste (C288L/N181C) (setting [9]) and 1.81 s⁻¹ at TLP-ste (C288L/N181C) (setting [10]). The kcat/KM at TLP-ste (C288L/N181C) (setting [7]) is 271000 M⁻¹ s⁻¹; at TLP-ste (C288L/N181C) (correction: IFE only), 247400 M⁻¹ s⁻¹; at TLP-ste (C288L/N181C) (correction: none) it was 262300 M⁻¹ s⁻¹. In addition, the “concentration of hydrolyzed peptide above which fluorescence plateaus or decreases (cleaved products form aggregates)” value in data set [1] came out at 2500 nM.

Take “H-LAGGC(AF647)-NH2 [AF647-carrying product]”: the “relative activity of TLP-ste in the presence of product” value on TLP-ste is on record as “relative activity decreases”.

Take “TLP-ste (C288L/N181C) (Geobacillus stearothermophilus; C520L/N413C)”: in data set [2], the Km was 7000 µM and the kcat was found to be 14 s^–1.

B1: 4aa-AF647, CF-PAGLAC(AF647)-NH2 (peptide)
peptide: {CF}-PAGLAC(AF647)-NH2
For B1, the KM of hydrolysis by 1 nM TLP-ste (Michaelis-Menten fit, donor fluorescence, corrected for IFE and FRET efficiency; 30 °C, MOPS pH 7.4, 10% DMSO) in data set [3] stood at 53.3 μM.

B2: 6aa-Cy5, CF-PVAGLAGC(Cy5)-NH2 (peptide)
peptide: {CF}-PVAGLAGC(Cy5)-NH2
With B2, the KM of hydrolysis by 1 nM TLP-ste (Michaelis-Menten fit, donor fluorescence, corrected for IFE and FRET efficiency; 30 °C, MOPS pH 7.4, 10% DMSO) in data set [3] came out at 11.6 μM.

B3: 8aa-AF647, CF-…(AF647)-NH2 (peptide)
peptide: {CF}-PSVAGLAGGC(AF647)-NH2
Regarding B3, the KM of hydrolysis by 1 nM TLP-ste (Michaelis-Menten fit, donor fluorescence, corrected for IFE and FRET efficiency; 30 °C, MOPS pH 7.4, 10% DMSO) in data set [3] was 77.6 μM.

B4: 4aa-Cy5, CF-PAGLAC(Cy5)-NH2 (peptide)
peptide: {CF}-PAGLAC(Cy5)-NH2
As to B4, the KM of hydrolysis by 1 nM TLP-ste (Michaelis-Menten fit, donor fluorescence, corrected for IFE and FRET efficiency; 30 °C, MOPS pH 7.4, 10% DMSO) in data set [3] was 2.4 μM.

B5: 8aa-Cy5, CF-…(Cy5)-NH2 (peptide)
peptide: {CF}-PSVAGLAGGC(Cy5)-NH2
Regarding B5, the KM of hydrolysis by 1 nM TLP-ste (Michaelis-Menten fit, donor fluorescence, corrected for IFE and FRET efficiency; 30 °C, MOPS pH 7.4, 10% DMSO) in data set [3] stood at 17.6 μM.
